Values quoted from earlier work in US5122376A, “Calcitonin gene related peptide” (ISF Societa per Azioni, priority 1989, dated 1992).

Details: compared with sodium caprate

absorption-enhancing agent for insulin (nasal absorption): weaker than sodium caprate
SMILES: CC1(C)[C@@H](O)CC[C@]2(C)[C@H]3C(=O)C=C4[C@@H]5C[C@@](C)(C(=O)[O-])CC[C@]5(C)CC[C@@]4(C)[C@]3(C)CC[C@@H]12.[Na+] [sodium glycyrrhetinate]
